Experimental data taken from US6043037A, “Rapid method for measuring clastogenic fingerprints using fluorescence in situ hybridization” (The Regents of the University of California, priority 1997, dated 2000).

How the values were obtained:
human lymphocytes [1] = assay: S ratio measured by FISH in lymphocytes of humans exposed in vivo (benzene workers, tritium worker)
Source text: Except where noted, all data analyzed were obtained using FISH. Identification and scoring of chromosome exchange aberrations using chromosome painting to generate additional data employed the methods of J. M. Lucas, et al., Rapid translocation frequency analysis in humans decades after exposure to ionizing radiation, Int'l. […] The chromosome exchange aberrations scored here were apparently simple (AS) exchange-type painting patterns.
The pattern resembles that of translocations. An incomplete apparently simple (AS) translocation pattern resembles that of an incomplete reciprocal translocation where the solid painted fragment contains one centromere. These aberrations are those translocations where reciprocity of the exchange event is not registered, either because the exchanged is actually incomplete, or because one of the exchanges segments involves the extreme, unpainted, terminal part of the arm.
Incomplete apparently simple translocations were recognized as bicolor chromosome derivatives, where the centromere resides on the unpainted segment.
Where possible, data were combined, and in some cases, additional scoring was performed to improve statistics. The blind scoring of coded photomicrographs was performed by technicians unfamiliar with the project goal. Photomicrographs were either reanalyzed from previous studies, or new photomicrographs were analyzed for this study.
The significance estimate for testing the equality of S-ratios between any two populations compared here was calculated by a likelihood ratio test using a Generalized Linear Model (GLM) on two nested hypotheses. The four outcomes were assumed to be distributed as independent Poisson random variates with a logarithmic link function. The null hypothesis included terms for offset, population and outcome type. The alternative included an additional interaction term. […]

human lymphocytes [2] = assay: S ratio (apparently simple translocations / incompletes) measured by FISH after in vitro exposure to clastogenic agents; format: cell-based
Protocol: Identification and scoring of chromosome exchange aberrations was performed using FISH as described in Lucas, et al., Rapid translocation frequency analysis in humans decades after exposure to ionizing radiationi, Int'l. J. Radiat. Biol., 62:53-63 (1992). The scoring criteria used (apparently […] exchange-type painting pattern) was equivalent to those described in Simpson, et al. Estimating the true frequency of X-ray-induced complex chromosome exchanges using fluorescence in situ hybridization, Int'l. J. Radiat. Biol., 67:37-45 (1995). Only apparently simple translocations (ASTs) and dicentrics (ASD's) were used to calculate F ratios because equality for translocations and dicentrics has been shown only for AST's and ASD's mathematically (Lucas, et al., Int'l. J. Radiat. Biol., 69:145-153 (1996) and experimentally (Simpson, et al., Int'l. J. Radiat. Biol., 67:37-45 (1995); Kovacs et al., Radiation Research, 137:34-43. (1994). The translocation frequency measured by FISH was scaled to full-genome equivalents using the formula in Lucas, et al., Int'l. J. Radiat. Biol., 62:53-63 (1992), herein by reference. In brief, the formula relates the translocation frequency measured by FISH, Fp, to the genomic translocation frequencies, FG, through the fraction of the genome covered by the probes, fp, as follows:
Cells were irradiated with ^60 Co and ^137 Cs gamma rays in order to produce aberrations and detect the frequency of their occurance. Irradiation of cells with ^60 Co and ^137 Cs gamma rays has been described elsewhere. Lucas, J. N., et al., Rapid determination of human chromosome translocation frequency using a pair of chromosome-specific DNA probes, Int'l. J. Radiat. Biol., 56:35-44 (1989). […]
Except where noted, all data analyzed were obtained using FISH. […] The chromosome exchange aberrations scored here were apparently simple (AS) exchange-type painting patterns. Simpson, P. J. and Savage, J. R. K., Estimating the true frequency of X-ray-induced complex chromosome exchanges using fluorescence in situ hybridization, Int'l. […]

[3] = 20 benzene workers with history of benzene poisoning, 18,583 cells
[4] = in vitro exposure, 1800 cells (bleomycin), 5,809 cells (tritium, 0.6 Gy)

## c1ccccc1 [Benzene, benzene]
Human lymphocytes [1]; [3]
  ASTs (apparently simple / complete translocations): 50
  Inc (incomplete apparently simple translocations): 25
Human lymphocytes [1]; benzene workers, vs low-LET radiation
  S ratio compared with low-LET radiation: significantly lower than those measured for low-LET radiation

## bleomycin
Human lymphocytes [2]; [4]
  ASTs (apparently simple translocations): 49
  Inc (incomplete apparently simple translocations): 21
Human lymphocytes [2]; in vitro, vs low-LET radiation
  S ratio compared with low-LET radiation: significantly lower than those measured for low-LET radiation
